Test system: AGS cells (KRAS^G12D)
Experiment: Detection of cell proliferation in vitro by MTT/MTS method (cell activity experiment)
Format: cell-based
Details: AGS cells; MTT/MTS; 3 days of drug treatment; read-out: AGS IC50
Outline: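 After 3-day compound exposure (final DMSO 0.5%), viability of AGS (KRAS G12D) cells, plated 1000/well one day before dosing, was measured at 490 nm following 4 h MTT or MTS incubation. IC50 was fitted from dose–effect curves relative to DMSO-treated wells.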

| Structure (SMILES) | IC50 [nM] |
| --- | --- |
| Oc1cc2c(c(-c3ncc4c(N5C[C@H]6CC[C@@H](C5)N6)nc(OC[C@@]56CCCN5C[C@H](F)C6)nc4c3F)c1)CCCC2 [Example 419, 4-(4-((1R,5S)-3,8-diazabicyclo[3.2.1]octan-3-yl)-8-fluoro-2-(((2R,7aS)-2-fluorotetrahydro-1H-pyrrolizin-7a(5H)-yl)methoxy)pyrido[4,3-d]pyrimidin-7-yl)-5,6,7,8-tetrahydronaphthalen-2-ol] | 14 |

Same assay, conditions: Homo sapiens, AGS, 72 h, AGS cells; MTT/MTS; 3 days of drug treatment; read-out: AGS IC50

| Structure (SMILES) | IC50 [nM] |
| --- | --- |
| CC1CCCc2cc(O)cc(-c3c(F)c4nc(OC[C@@]56CCCN5C[C@H](F)C6)nc(N5C[C@H]6CC[C@@H](C5)N6)c4c4nccn34)c21 (stereo partly drawn) [Example 414, 4-(10-((1R,5S)-3,8-diazabicyclo[3.2.1]octan-3-yl)-6-fluoro-8-(((2R,7aS)-2-fluorotetrahydro-1H-pyrrolizin-7a(5H)-yl)methoxy)imidazo[1′,2′:1,2]pyrido[4,3-d]pyrimidin-5-yl)-5-methyl-5,6,7,8-tetrahydronaphthalen-2-ol] | 45 |
| CCc1nccc2cc(O)cc(-c3ncc4c(N5C[C@H]6CC[C@@H](C5)N6)nc(OC[C@@]56CCCN5C[C@H](F)C6)nc4c3F)c12 [Example 340, 8-(4-((1R,5S)-3,8-diazabicyclo[3.2.1]octan-3-yl)-8-fluoro-2-(((2R,7aS)-2-fluorotetrahydro-1H-pyrrolizin-7a(5H)-yl)methoxy)pyrido[4,3-d]pyrimidin-7-yl)-1-ethylisoquinolin-6-ol] | 20 |
| Cc1cc(N)nc(-c2ncc3c(N4C[C@H]5CC[C@@H](C4)N5)nc(OC[C@@]45CCCN4C[C@H](F)C5)nc3c2F)c1C(F)(F)F [Example 41, 6-(4-((1R,5S)-3,8-diazabicyclo[3.2.1]octan-3-yl)-8-fluoro-2-(((2R,7aS)-2-fluorotetrahydro-1H-pyrrolizin-7a(5H)-yl)methoxy)pyrido[4,3-d]pyrimidin-7-yl)-4-methyl-5-(trifluoromethyl) pyridin-2-amine] | > 2500 |
| C#Cc1cccc2cc(O)cc(-c3ncc4c(N5C[C@H]6CC[C@@H](C5)O6)nc(OC[C@@]56CCCN5C[C@H](F)C6)nc4c3F)c12 [Example 11, 4-(4-((1R,5S)-8-oxa-3-azabicyclo[3.2.1]octan-3-yl)-8-fluoro-2-(((2R,7aS)-2-fluorotetrahydro-1H-pyrrolizin-7a(5H)-yl)methoxy)pyrido[4,3-d]pyrimidin-7-yl)-5-ethynylnaphthalen-2-ol] | 390 |
| Oc1cc2c(c(-c3ncc4c(N5C[C@H]6CC[C@@H](C5)N6)nc(OC[C@@]56CCCN5C[C@H](F)C6)nc4c3F)c1)C1CC1CC2 (stereo partly drawn) [Example 246, 7-(4-((1R,5S)-3,8-diazabicyclo[3.2.1]octan-3-yl)-8-fluoro-2-(((2R,7aS)-2-fluorotetrahydro-1H-pyrrolizin-7a(5H)-yl)methoxy)pyrido[4,3-d]pyrimidin-7-yl)-1a,2,3,7b-tetrahydro-1H-cyclopropa[a]naphthalen-5-ol] | 109 |
| CCc1c(F)ccc2cc(O)cc(-c3ccc4c(N5CC6CCC(C5)[S+]6[O-])nc(OC[C@@]56CCCN5C[C@H](F)C6)nc4c3F)c12 (stereo partly drawn) [Example 162, (1R,5S,8R)-3-(7-(8-ethyl-7-fluoro-3-hydroxynaphthalen-1-yl)-8-fluoro-2-(((2R,7aS)-2-fluorotetrahydro-1H-pyrrolizin-7a(5H)-yl)methoxy)quinazolin-4-yl)-8-thia-3-azabicyclo[3.2.1]octane 8-oxide] | > 2500 |
| [O-][S+]1CCc2cc(O)cc(-c3ncc4c(N5C[C@H]6CC[C@@H](C5)N6)nc(OC[C@@]56CCCN5C[C@H](F)C6)nc4c3F)c21 (stereo partly drawn) [Example 252, 7-(4-((1R,5S)-3,8-diazabicyclo[3.2.1]octan-3-yl)-8-fluoro-2-(((2R,7aS)-2-fluorotetrahydro-1H-pyrrolizin-7a(5H)-yl)methoxy)pyrido[4,3-d]pyrimidin-7-yl)-5-hydroxy-2,3-dihydrobenzo[b]thiophene 1-oxide] | > 2500 |
| CCC1c2c(-c3ncc4c(N5C[C@H]6CC[C@@H](C5)N6)nc(OC[C@@]56CCCN5C[C@H](F)C6)nc4c3F)cc(O)cc2C2CC21 (stereo partly drawn) [Example 355, 5-(4-((1R,5S)-3,8-diazabicyclo[3.2.1]octan-3-yl)-8-fluoro-2-(((2R,7aS)-2-fluorotetrahydro-1H-pyrrolizin-7a(5H)-yl)methoxy)pyrido[4,3-d]pyrimidin-7-yl)-6-ethyl-1,1a,6,6a-tetrahydrocyclopropa[a]inden-3-ol] | 20 |
| CCc1cccc2cc(O)cc(-c3ncc4c(N5C[C@H]6CC[C@@H](C5)O6)nc(OC[C@@]56CCCN5C[C@H](F)C6)nc4c3F)c12 [Example 14, 4-(4-((1R,5S)-8-oxa-3-azabicyclo[3.2.1]octan-3-yl)-8-fluoro-2-(((2R,7aS)-2-fluorotetrahydro-1H-pyrrolizin-7a(5H)-yl)methoxy)pyrido[4,3-d]pyrimidin-7-yl)-5-ethylnaphthalen-2-ol] | 330 |
| CCc1cccc2cc(O)cc(-c3ncc4c(C5C[C@H]6CC[C@@H](C5)N6)nc(OC[C@@]56CCCN5C[C@H](F)C6)nc4c3F)c12 (stereo partly drawn) [Example 81, 4-(4-((1R,5S)-8-azabicyclo[3.2.1]octan-3-yl)-8-fluoro-2-(((2R,7aS)-2-fluorotetrahydro-1H-pyrrolizin-7a(5H)-yl)methoxy)pyrido [4,3-d]pyrimidin-7-yl)-5-ethylnaphthalen-2-ol] | > 2500 |
| CCc1c(F)ccc2cc(O)cc(N3CCc4c(nc(OC[C@]56CCCN5[C@@H](COC(=O)N(C)C)CC6)nc4N4C[C@H]5CC[C@@H](C4)N5)C3)c12 [Example 210, ((3R,7aR)-7a-(((4-((1R,5S)-3,8-diazabicyclo[3.2.1]octan-3-yl)-7-(8-ethyl-7-fluoro-3-hydroxynaphthalen-1-yl)-5,6,7,8-tetrahydropyrido[3,4-d]pyrimidin-2-yl)oxy)methyl)hexahydro-1H-pyrrolizin-3-yl)methyl dimethylcarbamate] | 65 |
| C#Cc1cccc2cc(O)cc(-c3ncc4c(N5CC6CCC(C5)C6F)nc(OC[C@@]56CCCN5C[C@H](F)C6)nc4c3F)c12 (stereo partly drawn) [Example 36, 5-ethynyl-4-(8-fluoro-4-((1R,5S,8R)-8-fluoro-3-azabicyclo[3.2.1]octan-3-yl)-2-(((2R,7aS)-2-fluorotetrahydro-1H-pyrrolizin-7a(5H)-yl)methoxy)pyrido[4,3-d]pyrimidin-7-yl) naphthalen-2-ol] | > 2500 |
| C#Cc1c(F)ccc2cc(O)cc(-c3ncc4c(N5C[C@H]6CC[C@@H](C5)S6)nc(OC[C@@]56CCCN5C[C@H](F)C6)nc4c3F)c12 [Example 21, 4-(4-((1R,5S)-8-thia-3-azabicyclo[3.2.1]octan-3-yl)-8-fluoro-2-(((2R,7aS)-2-fluorotetrahydro-1H-pyrrolizin-7a(5H)-yl)methoxy)pyrido[4,3-d]pyrimidin-7-yl)-5-ethynyl-6-fluoronaphthalen-2-ol] | 269 |
| C#Cc1c(F)ccc2cc(O)cc(-c3ncc4c(N5CC6CCC(C5)[S+]6[O-])nc(OC[C@@]56CCCN5C[C@H](F)C6)nc4c3F)c12 (stereo partly drawn) [Example 22, (1R,5S,8R)-3-(7-(8-ethynyl-7-fluoro-3-hydroxynaphthalen-1-yl)-8-fluoro-2-(((2R,7aS)-2-fluorotetrahydro-1H-pyrrolizin-7a(5H)-yl)methoxy)pyrido [4,3-d]pyrimidin-4-yl)-8-thia-3-azabicyclo [3.2.1]octane 8-oxide] | 3950 |
| CCc1ccc2cc(O)cc(-c3c4c(c5c(N6C[C@H]7CC[C@@H](C6)N7)nc(OC[C@@]67CCCN6C[C@H](F)C7)nc5c3F)OCO4)n12 [Example 397, 5-(9-((1R,5S)-3,8-diazabicyclo[3.2.1]octan-3-yl)-5-fluoro-7-(((2R,7aS)-2-fluorotetrahydro-1H-pyrrolizin-7a(5H)-yl)methoxy)-[1,3]dioxolo[4,5-f]quinazolin-4-yl)-3-ethylindolizin-7-ol] | 70 |
| Oc1cc(-c2ccc3c(N4C[C@H]5CC[C@@H](C4)N5)nc(OC[C@@]45CCCN4C[C@H](F)C5)nc3c2F)c2c(F)cccc2c1 [Example 95, 4-(4-((1R,5S)-3,8-diazabicyclo[3.2.1]octan-3-yl)-8-fluoro-2-(((2R,7aS)-2-fluorotetrahydro-1H-pyrrolizin-7a(5H)-yl)methoxy)quinazolin-7-yl)-5-fluoronaphthalen-2-ol] | 13.5 |
| CCC1CCc2cc(O)cc(-c3c4c(c5c(N6C[C@H]7CC[C@@H](C6)N7)nc(OC[C@@]67CCCN6C[C@H](F)C7)nc5c3F)CCC4)c21 (stereo partly drawn) [Example 381, 7-(1-((1R,5S)-3,8-diazabicyclo[3.2.1]octan-3-yl)-5-fluoro-3-(((2R,7aS)-2-fluorotetrahydro-1H-pyrrolizin-7a(5H)-yl)methoxy)-8,9-dihydro-7H-cyclopenta[f]quinazolin-6-yl)-1-ethyl-2,3-dihydro-1H-inden-5-ol] | 75 |
| CCc1c(F)ccc2cc(O)cc(-c3ccc4c(N5C[C@H]6CC[C@@H](C5)S6)nc(OC[C@@]56CCCN5C[C@H](F)C6)nc4c3F)c12 [Example 161, 4-(4-((1R,5S)-8-thia-3-azabicyclo[3.2.1]octan-3-yl)-8-fluoro-2-(((2R,7aS)-2-fluorotetrahydro-1H-pyrrolizin-7a(5H)-yl)methoxy)quinazolin-7-yl)-5-ethyl-6-fluoronaphthalen-2-ol] | 236 |
| C#Cc1c(F)ccc2cc(O)cc(-c3ccc4c(N5C[C@H]6CC[C@@H](C5)C6(F)F)nc(OC[C@@]56CCCN5C[C@H](F)C6)nc4c3F)c12 [Example 119, 4-(4-((1R,5S)-8,8-difluoro-3-azabicyclo [3.2.1]octan-3-yl)-8-fluoro-2-(((2R,7aS)-2-fluorotetrahydro-1H-pyrrolizin-7a(5H)-yl)methoxy)quinazolin-7-yl)-5-ethynyl-6-fluoronaphthalen-2-ol] | > 2500 |
| C#Cc1cccc2cc(O)cc(-c3ncc4c(N5CCC6(CC5)CO[C@@H](C)[C@H]6N)nc(OC[C@@]56CCCN5C[C@H](F)C6)nc4c3F)c12 [Example 56, 4-(4-((3S,4S)-4-amino-3-methyl-2-oxa-8-azaspiro[4.5]decan-8-yl)-8-fluoro-2-(((2R, 7aS)-2-fluorotetrahydro-1H-pyrrolizin-7a(5H)-yl)methoxy)pyrido[4,3-d]pyrimidin-7-yl)-5-ethynylnaphthalen-2-ol] | > 2500 |

Source: patent US20240300980A1, “HETEROCYCLIC COMPOUNDS AS KRAS INHIBITOR, AND PREPARATION THEREFOR AND USE THEREOF IN TREATMENT” (SHANGHAI KECHOW PHARMA, INC., priority 2021, published 2024)
